Laboratory results from ChEMBL document CHEMBL1201862, “PubChem BioAssay data set” (2004).
Activity calls are given as the source filed them.

Experiments:
[1] = growth suppression of beta-catenin-knockout colon cells, dose response, cell-based, HCT116, human colon tumor (AID 1045); assay type: functional;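 further: HCT116 colon tumor cells with beta catenin knocked out; cells exposed to compound for 60 hours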
[2] = molecular target: T1, Sentrin-specific protease 7 (Homo sapiens, UniProt Q9BQF6); assay type: functional;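 further: Luminescence-based dose-response confirmation of ultra-high-throughput screening hits, measuring inhibition of SENP7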
T1 sequence (Q9BQF6 whole entry): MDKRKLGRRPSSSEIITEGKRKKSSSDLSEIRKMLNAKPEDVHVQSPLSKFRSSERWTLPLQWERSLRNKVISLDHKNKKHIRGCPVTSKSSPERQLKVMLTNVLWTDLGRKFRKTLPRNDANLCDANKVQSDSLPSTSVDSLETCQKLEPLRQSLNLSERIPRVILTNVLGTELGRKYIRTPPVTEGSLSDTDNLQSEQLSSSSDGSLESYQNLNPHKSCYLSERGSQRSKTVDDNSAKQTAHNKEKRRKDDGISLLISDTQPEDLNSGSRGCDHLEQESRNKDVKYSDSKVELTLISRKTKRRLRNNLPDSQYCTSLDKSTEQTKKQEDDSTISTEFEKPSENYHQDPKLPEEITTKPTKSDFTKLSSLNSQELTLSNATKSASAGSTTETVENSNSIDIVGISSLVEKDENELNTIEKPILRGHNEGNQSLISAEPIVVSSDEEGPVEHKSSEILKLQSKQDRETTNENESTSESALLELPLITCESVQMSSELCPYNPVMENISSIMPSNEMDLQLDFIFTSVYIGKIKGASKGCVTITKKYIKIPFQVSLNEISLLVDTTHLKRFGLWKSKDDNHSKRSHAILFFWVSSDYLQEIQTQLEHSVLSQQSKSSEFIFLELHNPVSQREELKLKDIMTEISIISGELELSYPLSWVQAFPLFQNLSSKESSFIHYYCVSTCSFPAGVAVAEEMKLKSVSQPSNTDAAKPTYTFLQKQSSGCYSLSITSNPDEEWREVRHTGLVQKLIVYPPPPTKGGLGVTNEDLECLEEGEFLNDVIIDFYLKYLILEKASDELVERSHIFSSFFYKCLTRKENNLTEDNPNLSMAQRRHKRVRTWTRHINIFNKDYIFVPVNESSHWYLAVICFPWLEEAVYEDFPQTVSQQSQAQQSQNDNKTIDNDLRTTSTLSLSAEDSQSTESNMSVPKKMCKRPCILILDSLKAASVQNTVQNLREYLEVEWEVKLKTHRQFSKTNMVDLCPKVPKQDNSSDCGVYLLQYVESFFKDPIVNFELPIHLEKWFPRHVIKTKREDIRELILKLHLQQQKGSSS

[3] = molecular target: T2, Caspase-3 (Homo sapiens, UniProt P42574); assay type: functional;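 further: Dose-response selectivity test against caspase-3 for candidate inhibitors of sentrin-specific proteases (SENPs)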
T2 sequence (P42574 whole entry): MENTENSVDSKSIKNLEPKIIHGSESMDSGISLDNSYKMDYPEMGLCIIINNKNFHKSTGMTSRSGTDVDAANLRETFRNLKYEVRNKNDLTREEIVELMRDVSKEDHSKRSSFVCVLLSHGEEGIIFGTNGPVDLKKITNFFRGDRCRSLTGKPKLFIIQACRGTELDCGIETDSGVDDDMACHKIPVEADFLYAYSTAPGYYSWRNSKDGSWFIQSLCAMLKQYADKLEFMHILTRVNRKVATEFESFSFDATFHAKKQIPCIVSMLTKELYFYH

[4] = tested on: INS1; test: beta cell apoptosis inhibitors, cytokine rescue, dose response, luminescence, retest (AID 449756); assay type: functional, cell-based; conditions: Rattus norvegicus;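 further: cell death triggered by IL-1 beta plus TNF-alpha plus IFN-gamma mixture; protective hits raise ATP signal compared with cytokine alone wells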
[5] = molecular target: T3, Sentrin-specific protease 6 (Homo sapiens, UniProt Q9GZR1); assay type: functional;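 further: Luminescence-based dose-response confirmatory assay of SENP6 inhibition, following up an ultra-high-throughput screen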
T3 sequence (Q9GZR1 whole entry): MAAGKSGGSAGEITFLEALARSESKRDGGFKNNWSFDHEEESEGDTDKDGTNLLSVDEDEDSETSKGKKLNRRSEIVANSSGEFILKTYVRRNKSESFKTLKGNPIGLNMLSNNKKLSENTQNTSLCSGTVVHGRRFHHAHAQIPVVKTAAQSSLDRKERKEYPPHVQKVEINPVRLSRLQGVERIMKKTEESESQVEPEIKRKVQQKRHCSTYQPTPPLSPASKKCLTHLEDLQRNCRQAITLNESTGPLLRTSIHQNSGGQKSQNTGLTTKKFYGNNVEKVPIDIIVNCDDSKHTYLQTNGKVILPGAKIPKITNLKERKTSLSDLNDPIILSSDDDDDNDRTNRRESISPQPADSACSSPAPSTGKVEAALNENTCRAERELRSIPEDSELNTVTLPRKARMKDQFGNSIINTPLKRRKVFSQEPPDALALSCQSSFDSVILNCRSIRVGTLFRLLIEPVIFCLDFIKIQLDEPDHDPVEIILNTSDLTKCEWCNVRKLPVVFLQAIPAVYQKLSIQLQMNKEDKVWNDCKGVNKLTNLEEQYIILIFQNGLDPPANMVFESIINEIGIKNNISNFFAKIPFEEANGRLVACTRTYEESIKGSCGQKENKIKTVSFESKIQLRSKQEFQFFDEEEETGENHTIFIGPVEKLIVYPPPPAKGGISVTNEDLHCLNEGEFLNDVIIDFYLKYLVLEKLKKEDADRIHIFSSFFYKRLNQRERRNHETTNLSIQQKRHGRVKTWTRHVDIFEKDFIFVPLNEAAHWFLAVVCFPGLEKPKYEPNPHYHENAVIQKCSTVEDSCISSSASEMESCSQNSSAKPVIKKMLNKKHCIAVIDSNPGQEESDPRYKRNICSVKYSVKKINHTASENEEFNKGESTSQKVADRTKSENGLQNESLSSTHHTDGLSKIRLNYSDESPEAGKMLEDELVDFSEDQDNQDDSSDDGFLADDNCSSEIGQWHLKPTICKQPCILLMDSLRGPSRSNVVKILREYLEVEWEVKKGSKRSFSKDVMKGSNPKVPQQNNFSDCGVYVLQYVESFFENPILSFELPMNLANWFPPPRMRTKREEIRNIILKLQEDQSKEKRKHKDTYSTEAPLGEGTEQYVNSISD

[6] = Vero E6 cell cytotoxicity, dose response, cytotoxicity control for non-replicating M. tuberculosis project, secondary assay (AID 492998); assay type: functional, VeroE6; conditions: Vero C1008
[7] = molecular target: T4, Sentrin-specific protease 8 (Homo sapiens, UniProt Q96LD8); assay type: functional;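 further: luminescence read-out of SENP8 inhibition, dose-response confirmation following an ultra-high-throughput screen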
T4 sequence (Q96LD8 whole entry): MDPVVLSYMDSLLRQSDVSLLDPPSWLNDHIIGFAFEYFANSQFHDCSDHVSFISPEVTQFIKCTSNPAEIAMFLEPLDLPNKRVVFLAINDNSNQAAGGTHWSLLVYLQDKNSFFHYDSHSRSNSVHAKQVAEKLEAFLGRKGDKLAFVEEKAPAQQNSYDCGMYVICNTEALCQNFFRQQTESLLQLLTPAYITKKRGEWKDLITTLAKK

[8] = growth suppression of PTEN-null colon cells, dose response, cell-based, HCT116 PTEN knockout (AID 1047); assay type: functional;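 further: HCT116 colon tumor cells with PTEN knocked out; cells exposed to compound for 60 hours before readout; potency for loss of cell viability measured by luminescence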
[9] = THP-1 cell cytotoxicity, dose response, cytotoxicity control for non-replicating M. tuberculosis project (AID 489025); assay type: functional
[10] = molecular target: T5, Fatty acid synthase (Homo sapiens, UniProt P49327); test: FAS thioesterase domain inhibitors, dose response, biochemical, kinetic fluorescence intensity (AID 624326); assay type: functional;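 further: rate of fluorescence rise from hydrolysis of a fluorogenic O-methyl fluorescein ester substrate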
[11] = molecular target: T6, Replicative DNA helicase DnaB (Mycobacterium tuberculosis, UniProt P9WMR3); test: DnaB intein splicing inhibitors, dose response, biochemical, cell-free fluorescence (AID 449749); assay type: functional
T6 sequence (P9WMR3 whole entry): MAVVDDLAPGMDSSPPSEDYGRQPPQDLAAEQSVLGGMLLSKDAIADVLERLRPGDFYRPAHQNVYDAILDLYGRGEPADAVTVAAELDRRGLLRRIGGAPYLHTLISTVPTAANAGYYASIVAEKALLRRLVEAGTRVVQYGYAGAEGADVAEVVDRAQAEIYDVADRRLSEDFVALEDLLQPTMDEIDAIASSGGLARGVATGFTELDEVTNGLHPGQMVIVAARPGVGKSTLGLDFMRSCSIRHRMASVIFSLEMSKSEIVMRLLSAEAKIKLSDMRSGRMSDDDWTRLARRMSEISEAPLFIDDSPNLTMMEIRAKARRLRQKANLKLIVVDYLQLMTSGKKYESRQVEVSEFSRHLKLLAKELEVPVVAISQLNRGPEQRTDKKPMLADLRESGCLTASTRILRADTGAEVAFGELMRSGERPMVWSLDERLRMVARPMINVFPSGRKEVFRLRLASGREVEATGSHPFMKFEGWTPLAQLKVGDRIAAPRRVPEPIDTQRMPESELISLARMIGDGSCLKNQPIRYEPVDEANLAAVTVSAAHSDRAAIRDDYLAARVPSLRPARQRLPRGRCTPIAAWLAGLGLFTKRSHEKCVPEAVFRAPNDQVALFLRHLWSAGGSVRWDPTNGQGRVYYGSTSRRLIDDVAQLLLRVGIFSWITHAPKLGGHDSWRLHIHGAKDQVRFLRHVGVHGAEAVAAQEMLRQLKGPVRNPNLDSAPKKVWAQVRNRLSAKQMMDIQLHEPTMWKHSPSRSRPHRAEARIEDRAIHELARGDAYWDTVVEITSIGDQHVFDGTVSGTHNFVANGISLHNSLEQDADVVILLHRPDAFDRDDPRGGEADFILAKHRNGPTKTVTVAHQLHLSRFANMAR

[12] = Intein inhibitors as potential Tuberculosis drugs, a cytotoxicity screen. [Related pubchem assays (depositor defined):AID2221, AID2223, AID434968, AID435010, AID449749, AID449750, AID489010]; assay type: functional
[13] = molecular target: T5, Fatty acid synthase; test: FAS thioesterase domain inhibitors, dose response, biochemical, endpoint fluorescence intensity, uHTS hits (AID 624327); assay type: functional;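 further: fluorescence from hydrolysis of an O-methyl fluorescein acyl ester substrate by the enzyme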
[14] = molecular target: T7, Protein RecA (Mycobacterium tuberculosis, UniProt P9WHJ3); test: Fluorescence Cell-Free Homogeneous Dose Retest to Identify Inhibitors of RecA-Intein Splicing Activity. [Related pubchem assays (depositor defined):AID2097, AID2223, AID489010, AID492950]; assay type: functional
T7 sequence (P9WHJ3 whole entry): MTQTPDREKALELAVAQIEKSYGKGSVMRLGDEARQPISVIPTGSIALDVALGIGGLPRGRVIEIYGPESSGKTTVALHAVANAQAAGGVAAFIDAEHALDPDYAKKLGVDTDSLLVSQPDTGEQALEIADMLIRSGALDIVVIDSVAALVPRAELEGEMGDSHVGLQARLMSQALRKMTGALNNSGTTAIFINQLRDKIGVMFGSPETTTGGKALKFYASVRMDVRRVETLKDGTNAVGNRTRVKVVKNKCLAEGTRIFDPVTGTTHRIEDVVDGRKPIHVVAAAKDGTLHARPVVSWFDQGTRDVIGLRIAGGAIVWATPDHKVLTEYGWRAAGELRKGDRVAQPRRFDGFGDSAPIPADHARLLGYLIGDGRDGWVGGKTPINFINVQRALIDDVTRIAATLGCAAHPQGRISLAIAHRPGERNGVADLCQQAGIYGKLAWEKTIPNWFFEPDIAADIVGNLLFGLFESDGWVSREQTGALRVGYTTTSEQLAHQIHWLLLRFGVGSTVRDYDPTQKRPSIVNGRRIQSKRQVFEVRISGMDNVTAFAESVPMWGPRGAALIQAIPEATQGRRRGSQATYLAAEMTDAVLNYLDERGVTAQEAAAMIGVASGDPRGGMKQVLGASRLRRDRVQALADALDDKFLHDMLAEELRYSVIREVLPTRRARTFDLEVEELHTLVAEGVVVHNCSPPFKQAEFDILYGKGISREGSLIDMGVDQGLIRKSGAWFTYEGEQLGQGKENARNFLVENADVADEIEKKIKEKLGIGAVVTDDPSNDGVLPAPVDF

[15] = insulin promoter down-regulators in MIN6 cells, imaging, high-content screening, mouse beta cells (AID 1628); assay type: functional
[16] = cytotoxicity in MIN6 insulinoma cells, dose response, cytotoxicity control, cell-based, mouse insulinoma (AID 2122); assay type: functional;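 further: confirmatory high-throughput counterscreen run to flag cytotoxic compounds; mouse MIN-6 beta cells carrying an insulin promoter eGFP reporter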
[17] = molecular target: T8, Heat shock factor protein 1 (Mus musculus, UniProt P38532); test: HSF1 potentiators in luciferase reporter cells, confirmation, cell-based, NIH3T3, luminescence, dose retest (AID 435004); assay type: functional;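 further: stress induced by proteasome inhibitor MG132 added 30 min after compound; luciferase reporter driven by HSF1 response element in NIH3T3 cells; actives raise luminescence as potentiators of the MG132 stress response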
T8 sequence (P38532 whole entry): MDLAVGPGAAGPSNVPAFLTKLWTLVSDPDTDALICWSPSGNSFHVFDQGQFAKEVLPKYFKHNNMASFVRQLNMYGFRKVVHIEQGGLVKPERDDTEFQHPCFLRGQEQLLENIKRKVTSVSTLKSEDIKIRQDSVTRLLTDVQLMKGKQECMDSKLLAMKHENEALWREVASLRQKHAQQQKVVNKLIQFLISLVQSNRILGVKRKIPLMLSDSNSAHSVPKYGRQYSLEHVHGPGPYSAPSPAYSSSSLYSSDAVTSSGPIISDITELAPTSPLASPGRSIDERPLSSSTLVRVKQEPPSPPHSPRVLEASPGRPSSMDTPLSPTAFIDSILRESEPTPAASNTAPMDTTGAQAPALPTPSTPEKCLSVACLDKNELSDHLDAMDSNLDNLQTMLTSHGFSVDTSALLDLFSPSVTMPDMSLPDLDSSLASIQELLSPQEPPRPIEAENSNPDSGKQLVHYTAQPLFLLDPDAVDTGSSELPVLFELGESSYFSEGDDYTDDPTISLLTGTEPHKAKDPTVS

T5 sequence (P49327 whole entry, the tested form may be a part): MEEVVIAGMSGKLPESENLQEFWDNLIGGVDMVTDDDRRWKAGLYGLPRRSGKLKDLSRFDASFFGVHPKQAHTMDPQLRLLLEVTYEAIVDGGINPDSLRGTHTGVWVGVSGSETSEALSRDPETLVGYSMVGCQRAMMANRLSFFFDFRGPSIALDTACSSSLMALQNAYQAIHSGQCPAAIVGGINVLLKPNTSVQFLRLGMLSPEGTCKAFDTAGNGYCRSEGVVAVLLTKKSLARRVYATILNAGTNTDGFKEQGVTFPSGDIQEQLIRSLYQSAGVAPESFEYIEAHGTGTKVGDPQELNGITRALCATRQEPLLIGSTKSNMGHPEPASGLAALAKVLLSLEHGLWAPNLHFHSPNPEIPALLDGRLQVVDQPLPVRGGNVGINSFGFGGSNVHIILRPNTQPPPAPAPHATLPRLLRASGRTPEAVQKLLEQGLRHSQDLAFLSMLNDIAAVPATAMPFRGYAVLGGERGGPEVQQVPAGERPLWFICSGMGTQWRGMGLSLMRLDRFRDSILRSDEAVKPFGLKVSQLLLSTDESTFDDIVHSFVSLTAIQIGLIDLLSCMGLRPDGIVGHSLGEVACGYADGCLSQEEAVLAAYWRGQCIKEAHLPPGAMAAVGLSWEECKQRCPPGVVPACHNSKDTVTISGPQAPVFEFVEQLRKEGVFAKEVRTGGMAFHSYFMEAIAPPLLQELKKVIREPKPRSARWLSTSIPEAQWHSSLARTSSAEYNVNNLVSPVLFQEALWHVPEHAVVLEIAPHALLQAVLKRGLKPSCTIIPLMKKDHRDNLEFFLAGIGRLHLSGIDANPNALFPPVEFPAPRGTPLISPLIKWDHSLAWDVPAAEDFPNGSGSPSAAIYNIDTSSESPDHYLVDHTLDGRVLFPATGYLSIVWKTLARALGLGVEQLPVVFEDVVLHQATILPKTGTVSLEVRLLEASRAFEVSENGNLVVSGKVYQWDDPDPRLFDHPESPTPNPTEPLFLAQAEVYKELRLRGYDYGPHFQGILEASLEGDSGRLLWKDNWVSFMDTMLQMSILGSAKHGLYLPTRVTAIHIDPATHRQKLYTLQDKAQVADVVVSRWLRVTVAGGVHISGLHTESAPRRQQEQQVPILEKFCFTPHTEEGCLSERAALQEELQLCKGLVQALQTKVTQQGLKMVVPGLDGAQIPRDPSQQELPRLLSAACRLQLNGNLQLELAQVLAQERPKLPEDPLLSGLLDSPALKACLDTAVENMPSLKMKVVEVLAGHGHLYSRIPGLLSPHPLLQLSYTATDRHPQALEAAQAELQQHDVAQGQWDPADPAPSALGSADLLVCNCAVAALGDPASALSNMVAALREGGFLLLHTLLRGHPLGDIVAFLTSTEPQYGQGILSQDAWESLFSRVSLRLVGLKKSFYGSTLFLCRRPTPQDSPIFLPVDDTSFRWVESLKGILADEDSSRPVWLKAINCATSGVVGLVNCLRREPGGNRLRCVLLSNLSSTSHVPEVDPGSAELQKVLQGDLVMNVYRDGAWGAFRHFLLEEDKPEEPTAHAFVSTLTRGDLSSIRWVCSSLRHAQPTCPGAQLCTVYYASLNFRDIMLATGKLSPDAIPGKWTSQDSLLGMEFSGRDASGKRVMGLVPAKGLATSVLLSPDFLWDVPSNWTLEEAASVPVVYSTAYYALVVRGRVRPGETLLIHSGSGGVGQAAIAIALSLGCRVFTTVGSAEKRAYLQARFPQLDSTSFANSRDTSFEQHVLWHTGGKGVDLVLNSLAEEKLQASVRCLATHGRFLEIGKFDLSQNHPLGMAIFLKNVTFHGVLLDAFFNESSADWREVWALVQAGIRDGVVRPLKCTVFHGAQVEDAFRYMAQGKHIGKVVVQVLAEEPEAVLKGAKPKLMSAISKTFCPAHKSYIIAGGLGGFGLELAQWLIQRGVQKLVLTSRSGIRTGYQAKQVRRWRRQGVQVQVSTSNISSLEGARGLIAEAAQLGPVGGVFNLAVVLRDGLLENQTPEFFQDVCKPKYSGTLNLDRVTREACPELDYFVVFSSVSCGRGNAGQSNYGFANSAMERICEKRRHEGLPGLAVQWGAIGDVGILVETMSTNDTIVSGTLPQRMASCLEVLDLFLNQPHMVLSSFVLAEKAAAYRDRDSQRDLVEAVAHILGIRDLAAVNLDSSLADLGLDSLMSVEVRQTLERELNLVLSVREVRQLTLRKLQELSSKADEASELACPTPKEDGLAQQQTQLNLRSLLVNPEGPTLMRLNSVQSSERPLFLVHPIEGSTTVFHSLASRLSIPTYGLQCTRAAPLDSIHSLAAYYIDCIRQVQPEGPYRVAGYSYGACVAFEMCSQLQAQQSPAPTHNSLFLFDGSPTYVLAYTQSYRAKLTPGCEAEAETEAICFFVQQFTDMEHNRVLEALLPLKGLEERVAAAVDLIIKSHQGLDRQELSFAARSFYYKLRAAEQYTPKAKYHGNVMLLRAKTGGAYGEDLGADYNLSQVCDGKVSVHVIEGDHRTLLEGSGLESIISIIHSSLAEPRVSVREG

In the case of O=[N+]([O-])c1ccc(-c2nc3cc([N+](=O)[O-])ccc3[nH]2)cc1, the EC50 [1] is reported as 13.2 µM (active), the IC50 [2] is reported as 17 µM (active) and the IC50 [3] is reported as 27.2 µM (active). The AC50 [4] was 3.9 µM (active), the IC50 [5] was 27.4 µM (active) and the CC50 [6] was 19.9 µM (active). The IC50 [7] was 24.8 µM (active), the EC50 [8] was 12 µM (active) and the CC50 [9] was 29.4 µM (active).
With CC(CCc1ccccc1)NC(=O)COC(=O)c1cc(NS(=O)(=O)c2ccc(Cl)c([N+](=O)[O-])c2)ccc1O (stereo not given) the IC50 [10] was 6.97 µM (active), the AC50 [11] was 3.63 µM (active) and the CC50 [12] was 32.9 µM (active). For the same molecule, the IC50 [13] was 11.1 µM (active) and the EC50 [14] was 2.95 µM (active).
With Cc1cc(C)nc(N=C(N)Nc2ccc(OCc3ccccc3)cc2)n1 the IC50 [15] was 0.988 µM (active) and the IC50 [16] was 1.22 µM (active).
With Cc1[nH]n(-c2ccccc2)c(=O)c1C(C[N+](=O)[O-])c1ccc(F)cc1 (stereo not given) the AC50 [11] was 0.729 µM (active), the CC50 [12] was > 40 µM (active) and the EC50 [17] was > 260 µM (inactive). For the same molecule, the EC50 [14] was 4.2 µM (active).
